Data taken from patent US20260317356A1, “SMALL MOLECULE MODULATORS OF OGG1” (AZKARRA THERAPEUTICS, INC., priority 2023, published 2026).

Key:
hOGG1 = hOGG1 (Homo sapiens, UniProt O15527); experiment: Surface Plasma Resonance with hOGG1 to measure compound affinity (OGG1 SPR Kd); format: binding; set-up: Protein His-hOGG1 (12-323) was prepared; conditions: Biacore T-200, immobilized his-tagged OGG1; pH 7.4; 2% DMSO; single-cycle kinetics
Method: Surface Plasma Resonance with hOGG1 to Measure Compound Affinity (OGG1 SPR Kd); All the SPR studies were performed on a Biacore T-200 instrument (Cytiva life sciences) using series S NTA sensor chip (cat #BR-1005-32, Cytiva life sciences). Recombinant his-tagged OGG1 (mol. wt. 36003; ChemPartner, Shanghai, China) was immobilized on NTA sensor chip via Ni^2+/NTA chelation using NTA reagent kit (Cytiva life sciences; cat #289950) as per manufacturer's recommended protocol. The running buffer during immobilization contained HEPES (20 mM, pH 7.4), 150 mM NaCl, 0.5 mM TCEP (tris(2-carboxyethyl)phosphine), and 0.005% Tween-20. NTA sensor chip (experimental cell) was first conditioned by injecting regeneration solution (350 mM EDTA, flow rate 30 μL/min, 2 injections 60 each). Additional wash with 50 mM NaOH was used whenever the chip was regenerated (flow rate 30 μL/min, 1 injection of 60 s). The sensor chip was then activated with 0.5 mM NiCl2 (flow rate 10 μL/min, 2 injection of 60 s, leading to a baseline increase of ~40 RU), and the excess Ni^2+ was removed using immobilization buffer containing 3 mM EDTA (flow rate 10 μL/min, 1 injection of 60 s). Finally, OGG1 (diluted to 6.2 μg/mL in running buffer) was injected on the activated sensor chip at a flow rate of 10 μL/min until immobilization level reached ~6000 RU. Any loosely bound protein was removed by passing the immobilization buffer overnight at 20 μL/min. At this point, the drift in baseline was ~0.01 RU/s and the final immobilization level was ~2500 RU. Reference cell was left untreated. SPR binding experiments were performed using binding buffer (20 mM HEPES (pH 7.4), 150 mM NaCl, 0.5 mM TCEP, 0.005% Tween-20, and 2% DMSO) at a flow rate of 30 μL/min. Single-cycle kinetics approach was used for binding analysis which consisted of sequential injections of increasing concentrations of test compound (a 3-fold serial dilution with 5 concentrations; highest 750 or 1500 nM; with final DMSO concentration at 2%) over the immobilized protein without regeneration step between each sample injection. Each injection was 45 seconds long (contact time), followed by a final dissociation of 600 sec. The Biacore T-200 Evaluation software 3.1 (GE Healthcare) was used to determine kinetic parameters from SPR data. All the reported sensograms were reference subtracted and corrected for refractive index contributions from solvent using 8-point solvent correction (1.4 to 2.8% DMSO in binding buffer). Data were fit to both steady state and 1:1 kinetic model to obtain Kon, Koff and binding affinity (Kd).

nLucOGG1 in HeLa cells = target: T1, nLucOGG1 in HeLa cells (Homo sapiens, UniProt O15527); experiment: Cellular Thermal Shift Assay to measure compound affinity for nLucOGG1 in HeLa cells (CETSA DTm); format: cell-based; conditions: 10 μM compound, 37° C. 60 min, Tm vs DMSO control
T1 construct: thermal shift read by NanoGlo luminescence
Method: Biological Example 2: Cellular Thermal Shift Assay to Measure Compound Affinity for ^nLucOGG1 in HeLa Cells (CETSA DTm)
Cell Culture and Transfection of Hela Cells with ^nLucOGG1: For all tests, Hela cells were maintained in growth medium, Dulbecco's Minimum Eagle Medium (Multicell: Cat #319-005-CL) supplemented with 10% heat-inactivated fetal bovine serum (Gibco: Cat #12484-028) at 37° C. and 5% CO2 in a humidified tissue culture incubator. Transient transfections were performed using the Lonza 4-D Nucleofector X unit according to the manufacturer's protocol (Lonza Cat #V4XC-1024). Briefly, for each transfection, 1.2×10^6 cells were centrifuged at 1000 RPM for 5 minutes at room temperature before being diluted in 100 μL SE solution containing 18% v/v supplement and 1.5 μg pNF1-N-empty or pNF1-N-OGG1a vector. The total volume was transferred to a 100 μL nucleofection cuvette prior to transfer to the apparatus where HeLa cell nucleofection protocol CN-114 was executed. Following nucleofection, 500 μL complete media was added to the cells in the cuvette before transferring to a 6-well dish containing 1.5 mL of complete media. Cells were left to incubate for 48 hours before performing all cellular thermal shift experiments.
Cellular Thermal Shift Assays for Target Engagement (CETSA): Forty-eight hours following nucleofection, cells were washed once with DPBS−/−(Multicell: Cat #311-425-CL) and lifted with 0.25% Trypsin-EDTA (Multicell: Cat #325-043-CL) prior to dilution in growth medium and centrifugation at 1000 RPM for 5 minutes at room temperature. The resulting cell pellet was then resuspended in growth medium, cells were counted and the volume adjusted to 500 k cells/mL (2×).
For delta Tm determination, OGG1 inhibitor compounds were dissolved in DMSO to a final working concentration of 20 mM. Working solutions were then diluted in complete media to 20 μM or 0.1% DMSO for the vehicle control (2×). 2×OGG1 inhibitor compound solutions or 0.1% DMSO control were then pre-dispensed into MicroAmp Optical 96-well PCR reaction plates (Applied Biosystems: Cat #4346906) at 50 μL/well. Next, 50 μL or 25 k cells/well from the 2× cell suspension was added to the pre-loaded PCR plates. All plates were prepared as duplicates, covered with adhesive plate sealers (Perkin Elmer: Cat #6050185) and left to incubate at 37° C. for 60 minutes. During incubation, sufficient NanoGlo luciferase assay reagents (Promega: Cat #N1120) were left to equilibrate to room temperature in the dark. Immediately before heating the plates, the NanoGlo substrate was mixed with the NanoGlo buffer at a 1:50 ratio. The thermal cycler (Veriti 96-Well Thermal Cycler, Thermo Fisher Scientific) was allowed to reach the designated temperature prior to placement of the PCR plate into the heating block. For Tm determination experiments, duplicate plates containing a fixed concentration of test compound (10 μM final) as well as vehicle control were prepared to perform a 12-point temperature gradient spanning 37-70° C. for 3 minutes. Therefore, two thermal cycler protocols were set up covering two 6-step temperature gradients ranging from 37-52° C. and 52-70° C. Plates were then allowed to cool at room temperature for 5 minutes after the heat treatment followed by transfer of 75 μL of the reaction into a 96-well white polystyrene microplate (Corning: Cat #CLS3903) and addition of 75 μL of the prepared NanoGlo mixture. Microplates were then left to shake in the dark for 5 minutes before total luminescence was measured on a SpectraMax IX3 plate reader. The luminescence value obtained at each temperature was normalized to the luminescence obtained at 37° C. and the ratio obtained was plotted against the temperature. A Boltzman Sigmoidal non-linear regression was applied to the resulting data to determine Tm values and the difference between the Tm value for a given OGG1 inhibitor relative to the DMSO vehicle control was the delta Tm.

T1 sequence (O15527 whole entry): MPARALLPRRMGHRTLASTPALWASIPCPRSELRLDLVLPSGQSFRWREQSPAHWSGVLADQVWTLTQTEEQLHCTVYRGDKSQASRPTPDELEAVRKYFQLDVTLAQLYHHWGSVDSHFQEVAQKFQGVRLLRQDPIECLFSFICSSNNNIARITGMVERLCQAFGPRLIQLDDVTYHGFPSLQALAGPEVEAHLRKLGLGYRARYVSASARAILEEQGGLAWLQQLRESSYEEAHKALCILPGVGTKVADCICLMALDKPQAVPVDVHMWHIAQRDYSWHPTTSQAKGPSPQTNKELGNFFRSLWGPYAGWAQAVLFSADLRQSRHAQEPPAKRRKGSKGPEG
Chain of hOGG1 (O15527 12-323): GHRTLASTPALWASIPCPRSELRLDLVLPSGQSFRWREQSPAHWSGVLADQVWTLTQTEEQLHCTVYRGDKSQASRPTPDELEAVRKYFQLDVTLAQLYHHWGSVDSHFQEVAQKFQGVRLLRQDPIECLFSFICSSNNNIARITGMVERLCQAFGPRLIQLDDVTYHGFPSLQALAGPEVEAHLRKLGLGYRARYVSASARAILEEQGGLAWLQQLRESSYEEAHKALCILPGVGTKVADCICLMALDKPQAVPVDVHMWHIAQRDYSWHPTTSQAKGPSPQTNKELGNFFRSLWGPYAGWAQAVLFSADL

SMILES	Kd (hOGG1)	ΔTm at 10 µM (nLucOGG1 in HeLa cells)
COc1cc(NC(=O)[C@H]2CC[C@@H](N3Cc4c(C)ccc(CN)c4NC3=O)CC2)ccc1C [Example 58, (1s,4s)-4-(8-(aminomethyl)-5-methyl-2-oxo-1,2-dihydroquinazolin-3(4H)-yl)-N-(3-methoxy-4-methylphenyl)cyclohexanecarboxamide]	0.01 to 0.1 µM	8 to 10 °C
COc1ccc(NC(=O)[C@H]2CC[C@@H](N3Cc4c(C)cc(NCCN(C)C)cc4NC3=O)CC2)cc1C#N [Example 99, (1s,4s)-N-(3-cyano-4-methoxyphenyl)-4-(7-(2-(dimethylamino)ethylamino)-5-methyl-2-oxo-1,2-dihydroquinazolin-3(4H)-yl)cyclohexanecarboxamide]	0.01 to 0.1 µM	8 to 10 °C
COc1ccc(NC(=O)[C@]2(C)CC[C@H](N3Cc4c(C)cccc4NC3=O)CC2)cc1Cl (single isomer, unassigned) [Example 103, (1s,4s)-N-(3-chloro-4-methoxyphenyl)-1-methyl-4-(5-methyl-2-oxo-1,2-dihydroquinazolin-3(4H)-yl)cyclohexanecarboxamide]	0.01 to 0.1 µM	8 to 10 °C
COc1ccc(NC(=O)[C@H]2CC[C@@H](N3Cc4c(C)ccnc4NC3=O)CC2)cc1C [Example 16, (1s,4s)-N-(4-Methoxy-3-methylphenyl)-4-(5-methyl-2-oxo-1,2-dihydropyrido[2,3-d]pyrimidin-3(4H)-yl)cyclohexanecarboxamide]	≤ 0.01 µM	8 to 10 °C
COc1ccc(NC(=O)[C@H]2CC[C@@H](N3Cc4c(C)cc(NCCN(C)C)cc4C3=O)CC2)cc1C [Example 256, (1s,4s)-4-(6-(2-(Dimethylamino)ethylamino)-4-methyl-1-oxoisoindolin-2-yl)-N-(4-methoxy-3-methylphenyl)cyclohexanecarboxamide]	≤ 0.01 µM	> 10 °C
COc1cc(NC(=O)[C@H]2CC[C@@H](N3Cc4c(C)ccnc4NC3=O)CC2)ccc1C [Example 41, (1s,4s)-N-(3-Methoxy-4-methylphenyl)-4-(5-methyl-2-oxo-1,2-dihydropyrido[2,3-d]pyrimidin-3(4H)-yl)cyclohexanecarboxamide]	0.01 to 0.1 µM	6 to 8 °C
COc1cc(NC(=O)[C@H]2CC[C@@H](N3Cc4c(C)ccc(OCC5CNC5)c4NC3=O)CC2)ccc1C [Example 44, (1s,4s)-4-(8-(Azetidin-3-ylmethoxy)-5-methyl-2-oxo-1,2-dihydroquinazolin-3(4H)-yl)-N-(3-methoxy-4-methylphenyl)cyclohexanecarboxamide]	0.01 to 0.1 µM	8 to 10 °C
COc1cc(NC(=O)[C@]2(C)CC[C@H](N3Cc4c(C)ccc(OC)c4NC3=O)CC2)ccc1C [Example 13, (1s,4s)-N-(3-Methoxy-4-methylphenyl)-4-(8-methoxy-5-methyl-2-oxo-1,2-dihydroquinazolin-3(4H)-yl)-1-methylcyclohexanecarboxamide]	0.01 to 0.1 µM	8 to 10 °C
COc1ccc(NC(=O)[C@H]2CC[C@@H](N3Cc4c(C)ccc(OC)c4NC3=O)CC2)cc1C#N [Example 2, (1s,4s)-N-(3-Cyano-4-methoxyphenyl)-4-(8-methoxy-5-methyl-2-oxo-1,2-dihydroquinazolin-3(4H)-yl)cyclohexanecarboxamide]	0.01 to 0.1 µM	6 to 8 °C
COc1ccc(NC(=O)[C@H]2CC[C@@H](N3Cc4c(C)ccnc4NC3=O)CC2)cc1 [Example 15, (1s,4s)-N-(4-methoxyphenyl)-4-(5-methyl-2-oxo-1,2-dihydropyrido[2,3-d]pyrimidin-3(4H)-yl)cyclohexanecarboxamide]	0.01 to 0.1 µM	6 to 8 °C
COc1ccc(NC(=O)[C@H]2CC[C@@H](N3Cc4c(C)cc(NCCN(C)C)cc4NC3=O)CC2)cc1C [Example 97, (1s,4s)-4-(7-(2-(dimethylamino)ethylamino)-5-methyl-2-oxo-1,2-dihydroquinazolin-3(4H)-yl)-N-(4-methoxy-3-methylphenyl)cyclohexanecarboxamide]	0.01 to 0.1 µM	8 to 10 °C
COc1ccc(NC(=O)[C@H]2CC[C@@H](N3Cc4c(C)cc(NCCN(C)C)cc4C3=O)CC2)cc1Cl [Example 260, (1s,4s)-N-(3-Chloro-4-methoxyphenyl)-4-(6-(2-(dimethylamino)ethylamino)-4-methyl-1-oxoisoindolin-2-yl)cyclohexanecarboxamide]	0.01 to 0.1 µM	> 10 °C
COc1ccc(NC(=O)[C@H]2CC[C@@H](N3Cc4c(C)cccc4C3=O)CC2)cc1C [Example 227, (1s,4s)-N-(4-Methoxy-3-methylphenyl)-4-(4-methyl-1-oxoisoindolin-2-yl)cyclohexanecarboxamide]	0.01 to 0.1 µM	6 to 8 °C
COc1cc(NC(=O)[C@H]2CC[C@@H](N3Cc4c(C)cnc(CNC(C)=O)c4NC3=O)CC2)ccc1C [Example 19, (1s,4s)-4-(8-(Acetamidomethyl)-5-methyl-2-oxo-1,2-dihydropyrido[3,4-d]pyrimidin-3(4H)-yl)-N-(3-methoxy-4-methylphenyl)cyclohexanecarboxamide]	≤ 0.01 µM	8 to 10 °C
COc1ccc(NC(=O)[C@H]2CC[C@@H](N3Cc4c(C)cc(NCCN(C)C)cc4C3=O)CC2)cc1C#N [Example 259, (1s,4s)-N-(3-Cyano-4-methoxyphenyl)-4-(6-(2-(dimethylamino)ethylamino)-4-methyl-1-oxoisoindolin-2-yl)cyclohexanecarboxamide]	0.01 to 0.1 µM	8 to 10 °C
